Experiments:
Experiment in all cases: biochemical
Set-up in all cases: KINOMEscan active-site competition binding, percent of control (100 = no competition)
Details in all cases: competition binding, percent control
[1] = target: ERBB2 (Homo sapiens, UniProt P04626)
[2] = target: TGFBR1 (Homo sapiens, UniProt P36897)
[3] = target: EGFR(L747-T751del,Sins) (Homo sapiens, UniProt P00533, DEL747-750/T751S)
[4] = target: T1, YANK1 (Homo sapiens, UniProt Q8WU08)
T1 construct: gene STK32A

[5] = target: TEC (Homo sapiens, UniProt P42680)
[6] = target: LATS2 (Homo sapiens, UniProt Q9NRM7)
[7] = target: T2, PYK2 (Homo sapiens, UniProt Q14289)
T2 construct: gene PTK2B

[8] = target: T3, PCTK1 (Homo sapiens, UniProt Q00536)
T3 construct: gene CDK16

[9] = target: MUSK (Homo sapiens, UniProt O15146)
[10] = target: T4, CDC2L1 (Homo sapiens, UniProt P21127)
T4 construct: gene CDK11B

[11] = target: T5, IKK-epsilon (Homo sapiens, UniProt Q14164)
T5 construct: gene IKBKE

[12] = target: T6, S6K1 (Homo sapiens, UniProt P23443)
T6 construct: gene RPS6KB1

[13] = target: EPHA4 (Homo sapiens, UniProt P54764)
[14] = target: ZAP70 (Homo sapiens, UniProt P43403)
[15] = target: CASK (Homo sapiens, UniProt O14936)
[16] = target: KIT (Homo sapiens, UniProt P10721)
[17] = target: LIMK2 (Homo sapiens, UniProt P53671)
[18] = target: T7, SgK110 (Homo sapiens, UniProt P0C264)
T7 construct: gene SBK3

[19] = target: PRKD1 (Homo sapiens, UniProt Q15139)
[20] = target: CLK2 (Homo sapiens, UniProt P49760)
[21] = target: T8, p38-alpha (Homo sapiens, UniProt Q16539)
T8 construct: gene MAPK14

[22] = target: CSNK1D (Homo sapiens, UniProt P48730)
[23] = target: T9, PFTAIRE2 (Homo sapiens, UniProt Q96Q40)
T9 construct: gene CDK15

T6 sequence (P23443 whole entry): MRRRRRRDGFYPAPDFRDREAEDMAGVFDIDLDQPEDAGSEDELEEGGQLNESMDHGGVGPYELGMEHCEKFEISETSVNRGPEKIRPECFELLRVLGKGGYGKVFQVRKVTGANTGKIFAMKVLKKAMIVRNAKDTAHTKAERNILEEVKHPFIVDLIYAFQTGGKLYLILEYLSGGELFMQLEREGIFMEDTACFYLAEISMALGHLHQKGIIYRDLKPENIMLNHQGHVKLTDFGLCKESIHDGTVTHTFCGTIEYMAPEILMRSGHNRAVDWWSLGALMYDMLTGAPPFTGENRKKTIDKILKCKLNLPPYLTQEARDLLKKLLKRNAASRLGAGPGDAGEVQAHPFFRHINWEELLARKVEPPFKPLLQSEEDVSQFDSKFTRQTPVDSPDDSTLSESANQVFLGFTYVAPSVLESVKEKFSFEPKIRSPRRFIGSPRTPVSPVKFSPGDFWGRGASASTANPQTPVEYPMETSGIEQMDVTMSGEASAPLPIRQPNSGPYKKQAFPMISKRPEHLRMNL
Chain of CASK (O14936 whole entry): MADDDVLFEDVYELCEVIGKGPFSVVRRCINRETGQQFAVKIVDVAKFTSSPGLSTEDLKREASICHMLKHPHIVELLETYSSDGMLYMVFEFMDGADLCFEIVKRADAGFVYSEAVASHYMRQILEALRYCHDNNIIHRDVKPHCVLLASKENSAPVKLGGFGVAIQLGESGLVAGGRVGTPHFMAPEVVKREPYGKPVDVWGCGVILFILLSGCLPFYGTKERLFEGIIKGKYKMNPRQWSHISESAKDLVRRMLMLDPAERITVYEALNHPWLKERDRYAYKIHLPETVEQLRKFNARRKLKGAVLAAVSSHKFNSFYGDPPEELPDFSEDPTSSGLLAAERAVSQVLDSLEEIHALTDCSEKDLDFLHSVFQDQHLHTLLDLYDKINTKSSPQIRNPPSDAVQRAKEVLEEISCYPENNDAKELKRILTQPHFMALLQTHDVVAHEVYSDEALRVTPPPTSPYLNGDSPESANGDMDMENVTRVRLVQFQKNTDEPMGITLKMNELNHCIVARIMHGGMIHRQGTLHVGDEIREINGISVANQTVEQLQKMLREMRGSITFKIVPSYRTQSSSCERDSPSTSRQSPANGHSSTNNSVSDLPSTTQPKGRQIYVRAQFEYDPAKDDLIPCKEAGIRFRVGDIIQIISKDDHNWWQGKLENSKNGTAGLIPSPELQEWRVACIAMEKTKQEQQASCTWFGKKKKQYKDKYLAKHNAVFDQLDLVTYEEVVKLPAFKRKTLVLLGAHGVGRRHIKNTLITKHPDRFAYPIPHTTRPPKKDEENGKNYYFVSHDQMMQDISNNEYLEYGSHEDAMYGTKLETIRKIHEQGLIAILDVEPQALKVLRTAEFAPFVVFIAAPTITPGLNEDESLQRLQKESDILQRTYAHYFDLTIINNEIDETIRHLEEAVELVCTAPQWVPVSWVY
Chain of LATS2 (Q9NRM7 whole entry): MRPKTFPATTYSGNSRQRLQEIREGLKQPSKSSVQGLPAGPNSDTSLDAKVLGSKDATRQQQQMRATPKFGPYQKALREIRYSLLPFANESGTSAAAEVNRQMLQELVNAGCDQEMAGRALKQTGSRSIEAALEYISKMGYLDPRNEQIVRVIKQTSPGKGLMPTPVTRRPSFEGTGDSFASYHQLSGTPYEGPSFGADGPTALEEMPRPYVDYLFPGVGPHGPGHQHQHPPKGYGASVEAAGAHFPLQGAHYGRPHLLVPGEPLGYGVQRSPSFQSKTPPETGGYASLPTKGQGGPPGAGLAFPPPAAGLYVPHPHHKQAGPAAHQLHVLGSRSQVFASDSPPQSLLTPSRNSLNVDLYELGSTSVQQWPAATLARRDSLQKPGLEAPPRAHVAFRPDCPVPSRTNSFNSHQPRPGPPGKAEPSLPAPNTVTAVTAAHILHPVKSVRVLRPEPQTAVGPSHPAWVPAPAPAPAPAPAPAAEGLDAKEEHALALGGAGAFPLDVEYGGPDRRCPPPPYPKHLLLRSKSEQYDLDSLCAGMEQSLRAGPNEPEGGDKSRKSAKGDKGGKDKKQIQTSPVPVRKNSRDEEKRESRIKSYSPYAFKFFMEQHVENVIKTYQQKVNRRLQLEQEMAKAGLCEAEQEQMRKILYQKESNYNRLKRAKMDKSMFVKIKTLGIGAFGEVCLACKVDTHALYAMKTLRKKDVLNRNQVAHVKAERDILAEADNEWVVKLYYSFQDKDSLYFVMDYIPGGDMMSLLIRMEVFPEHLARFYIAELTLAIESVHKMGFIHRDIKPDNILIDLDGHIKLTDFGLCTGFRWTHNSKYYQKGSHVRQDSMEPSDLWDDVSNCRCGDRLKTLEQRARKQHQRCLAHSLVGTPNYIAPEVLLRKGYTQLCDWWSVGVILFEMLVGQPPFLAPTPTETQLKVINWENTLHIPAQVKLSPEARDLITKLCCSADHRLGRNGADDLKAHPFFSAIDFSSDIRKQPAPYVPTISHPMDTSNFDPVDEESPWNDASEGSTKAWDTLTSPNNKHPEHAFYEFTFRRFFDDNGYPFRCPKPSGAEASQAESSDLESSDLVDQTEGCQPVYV
Chain of ZAP70 (P43403 whole entry): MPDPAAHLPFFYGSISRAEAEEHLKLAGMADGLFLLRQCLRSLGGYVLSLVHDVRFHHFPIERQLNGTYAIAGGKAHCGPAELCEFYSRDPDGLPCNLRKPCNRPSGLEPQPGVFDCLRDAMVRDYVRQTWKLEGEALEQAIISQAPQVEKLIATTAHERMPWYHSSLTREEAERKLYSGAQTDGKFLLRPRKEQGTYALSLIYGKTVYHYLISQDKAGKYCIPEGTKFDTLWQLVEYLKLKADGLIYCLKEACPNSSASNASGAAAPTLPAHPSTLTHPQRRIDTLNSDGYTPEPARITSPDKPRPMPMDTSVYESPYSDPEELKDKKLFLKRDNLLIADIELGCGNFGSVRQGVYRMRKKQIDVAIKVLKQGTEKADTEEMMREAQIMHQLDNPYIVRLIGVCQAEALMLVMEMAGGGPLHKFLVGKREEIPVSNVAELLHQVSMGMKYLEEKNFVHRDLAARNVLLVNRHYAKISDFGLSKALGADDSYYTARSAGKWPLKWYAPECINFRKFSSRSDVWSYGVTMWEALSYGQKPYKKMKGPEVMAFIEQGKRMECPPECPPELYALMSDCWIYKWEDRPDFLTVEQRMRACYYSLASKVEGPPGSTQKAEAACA
Chain of EPHA4 (P54764 whole entry): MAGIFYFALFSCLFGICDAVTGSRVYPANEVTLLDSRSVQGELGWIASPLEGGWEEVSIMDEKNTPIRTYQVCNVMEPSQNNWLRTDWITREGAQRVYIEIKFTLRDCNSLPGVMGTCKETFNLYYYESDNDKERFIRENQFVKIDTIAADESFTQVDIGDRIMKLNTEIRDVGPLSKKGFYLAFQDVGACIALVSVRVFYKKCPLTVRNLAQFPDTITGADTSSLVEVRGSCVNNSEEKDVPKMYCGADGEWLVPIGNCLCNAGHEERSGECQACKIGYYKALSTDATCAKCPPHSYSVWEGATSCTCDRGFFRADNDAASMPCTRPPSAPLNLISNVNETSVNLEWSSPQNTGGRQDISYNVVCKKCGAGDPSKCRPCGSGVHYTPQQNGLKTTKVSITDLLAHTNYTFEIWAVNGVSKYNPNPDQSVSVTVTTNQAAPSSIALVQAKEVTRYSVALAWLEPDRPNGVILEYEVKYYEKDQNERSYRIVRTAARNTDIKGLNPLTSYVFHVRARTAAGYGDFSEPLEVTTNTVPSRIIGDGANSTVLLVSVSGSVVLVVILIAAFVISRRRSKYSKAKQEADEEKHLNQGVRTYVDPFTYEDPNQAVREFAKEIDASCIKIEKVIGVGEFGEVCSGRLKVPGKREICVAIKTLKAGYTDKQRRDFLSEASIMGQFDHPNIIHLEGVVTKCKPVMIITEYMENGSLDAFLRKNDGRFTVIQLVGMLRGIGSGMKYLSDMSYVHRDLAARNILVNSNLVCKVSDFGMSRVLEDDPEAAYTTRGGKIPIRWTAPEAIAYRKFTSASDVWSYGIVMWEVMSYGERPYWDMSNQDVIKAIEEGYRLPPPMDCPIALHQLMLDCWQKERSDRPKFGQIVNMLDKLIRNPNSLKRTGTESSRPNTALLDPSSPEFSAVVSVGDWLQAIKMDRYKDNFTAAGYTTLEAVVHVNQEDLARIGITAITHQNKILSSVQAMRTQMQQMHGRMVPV
Chain of TEC (P42680 whole entry): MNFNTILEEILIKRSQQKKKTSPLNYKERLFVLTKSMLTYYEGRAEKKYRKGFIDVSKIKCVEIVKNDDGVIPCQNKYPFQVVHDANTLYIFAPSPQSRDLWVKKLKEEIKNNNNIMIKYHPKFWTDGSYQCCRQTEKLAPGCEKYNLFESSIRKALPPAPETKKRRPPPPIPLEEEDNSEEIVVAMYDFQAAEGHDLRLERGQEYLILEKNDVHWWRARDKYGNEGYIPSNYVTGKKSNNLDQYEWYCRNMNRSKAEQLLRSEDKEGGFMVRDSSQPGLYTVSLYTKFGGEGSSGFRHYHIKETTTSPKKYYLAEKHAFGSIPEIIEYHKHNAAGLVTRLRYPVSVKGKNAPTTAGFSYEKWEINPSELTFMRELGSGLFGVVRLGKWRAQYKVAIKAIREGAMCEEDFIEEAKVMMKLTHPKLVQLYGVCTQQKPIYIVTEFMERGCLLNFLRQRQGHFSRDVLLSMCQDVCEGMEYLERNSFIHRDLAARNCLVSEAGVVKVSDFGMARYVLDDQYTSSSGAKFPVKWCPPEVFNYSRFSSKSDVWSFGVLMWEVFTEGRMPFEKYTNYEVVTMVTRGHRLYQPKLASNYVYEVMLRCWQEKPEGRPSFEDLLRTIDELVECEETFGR

Work on COc1ccc(-c2cnccc2-c2cnc(NC(=O)C(C)C)s2)c(C(F)(F)F)c1 [CRT0105446, N-{5-[3-(4-Methoxy-2-trifluoromethyl-phenyl)-pyridin-4-yl]-hiazol-2-yl}-isobutyramide] yielded a remaining binding at 10 µM [1] of 94%, a remaining binding at 10 µM [2] of 99% and a remaining binding at 10 µM [3] of 100%. The remaining binding at 10 µM [4] was 69%, the remaining binding at 10 µM [5] was 100% and the remaining binding at 10 µM [6] was 90%. It also gave a remaining binding at 10 µM [7] of 100%, a remaining binding at 10 µM [8] of 11% and a remaining binding at 10 µM [9] of 96%. For the same molecule, the remaining binding at 10 µM [10] was 54%, the remaining binding at 10 µM [11] was 85% and the remaining binding at 10 µM [12] was 78%. For the same molecule, the remaining binding at 10 µM [13] was 100%, the remaining binding at 10 µM [14] was 86% and the remaining binding at 10 µM [15] was 1.2%. The remaining binding at 10 µM [16] was 55%, the remaining binding at 10 µM [17] was 1.1% and the remaining binding at 10 µM [18] was 100%. The remaining binding at 10 µM [19] was 88%, the remaining binding at 10 µM [20] was 78% and the remaining binding at 10 µM [21] was 93%. It also gave a remaining binding at 10 µM [22] of 27% and a remaining binding at 10 µM [23] of 18%.

Cc1ccc(-c2cnccc2-c2cnc(Nc3ccc(O)cc3)s2)c(Cl)c1 [CRT0105950, 4-{5-[3-(2-Chloro-4-methyl-phenyl)-pyridin-4-yl]-thiazol-2-ylamino}-phenol] gave a remaining binding at 10 µM [1] of 80%, a remaining binding at 10 µM [2] of 74% and a remaining binding at 10 µM [3] of 68%. For the same molecule, the remaining binding at 10 µM [4] was 88%, the remaining binding at 10 µM [5] was 100% and the remaining binding at 10 µM [6] was 6%. The remaining binding at 10 µM [7] was 2.2%, the remaining binding at 10 µM [8] was 63% and the remaining binding at 10 µM [9] was 18%. The remaining binding at 10 µM [10] was 71%, the remaining binding at 10 µM [11] was 41% and the remaining binding at 10 µM [12] was 41%. It also gave a remaining binding at 10 µM [13] of 94%, a remaining binding at 10 µM [14] of 99% and a remaining binding at 10 µM [15] of 13%. For the same molecule, the remaining binding at 10 µM [16] was 3.2%, the remaining binding at 10 µM [17] was 0% and the remaining binding at 10 µM [18] was 25%. The remaining binding at 10 µM [19] was 18%, the remaining binding at 10 µM [20] was 0.45% and the remaining binding at 10 µM [21] was 87%. For the same molecule, the remaining binding at 10 µM [22] was 6.1% and the remaining binding at 10 µM [23] was 18%.

Source: publication PMC4770715, “LIM kinase inhibitors disrupt mitotic microtubule organization and impair tumor cell proliferation” (Oncotarget, 2015)
